Experimental data: patent publication EP0697407B1, “Pyrimidinedione derivatives and antiarrhythmic compositions containing same” (MITSUI TOATSU CHEMICALS, Inc., priority 1994, dated 1996)
Blank lines part the entries; values can stand above or below the compound they belong to.

Tests used:
right Purkinje fiber = experiment: Effect on myocardial action potential duration (APD75) in isolated, perfused Purkinje fiber; assay type: cell-based, mongrel adult dog; conditions: Canis lupus familiaris, 20 min, 20 minutes' incubation, field stimulus of 1 Hz, 37°C, read-out: T (%), percent prolongation of myocardial action potential duration (APD75); for activation at 1 µM: Dose 1 x 10^-6 M; for activation at 10 µM: Dose 10 x 10^-6 M; for activation at 100 µM: Dose 100 x 10^-6 M
Method: After a mongrel adult dog was anesthetized by the intravenous administration of 30 mg/kg of pentobarbital, the heart was excised therefrom. Then, the right Purkinje fiber was isolated in a nutrient fluid (i.e., Tyrode's solution). The isolated right Purkinje fiber was fixed in a constant-temperature bath (20 ml) at 37°C and perfused with Tyrode's solution. In this state, the myocardial action potential duration (APD75) was measured before and after the administration of each test compound. Then, the percent prolongation of myocardial action potential duration (T) after the administration of each test compound was calculated according to the following equation. T(%) =(B - A)/(A)x 100 [formula] where A: APD75 before administration B: APD75 after administration
APD75 was measured as follows: A field stimulus of 1 Hz was given to the right Purkinje fiber, and any change in action potential was detected by a glass microelectrode (10-20 MΩ) penetrated into a Purkinje fiber and monitored on an oscilloscope via an amplifier. The waveform on the oscilloscope was analyzed by means of a computer, and the duration beween the point of action potential generation adn the point of 75% repolarization was defined as APD75. The test compounds shown in Table 2 were separately added to the perfusing nutrient fluid, and after 20 minutes' incubation was recorded. This test was carried out according to the method of Sato et al. [S. Sato, K. Hashimoto; Arzneimittel Forschung, 34(1), 3a, 376-380(1984)].

[1] = Stability test in acid aqueous solution (Solution 1 of the Japanese Pharmacopoeia, pH 1.2), remaining compound by HPLC; assay type: physicochemical; conditions: Solution 1 (pH 1.2)
Method: In order to confirm the stability of the compounds of the present invention in an acid aqueous solution, stability was tested on the fumarate of 6-[3-[N-[2-(4-methanesulfonylaminophenyl)ethyl]-N-propylamino]propyl]-1,3-dimethyl-2,4(1H,3H)pyrimidinedione (the compound obtained in Example 118; hereinafter referred to as compound A) which is a compound in accordance with the present invention, and 1,3-dimethyl-6-{2-[N-ethyl-3-phenylpropylamino]ethylamino}2,4(1H,3H)-pyrimidinedione (hereinafter referred to as compound B) which is a pyrimidinedione derivative having a substituted amino group at the 6-position of the pyrimidinedione ring as described in European Publication No. 454,498 A2 and was used for purposes of comparison.
Solution 1 (pH 1.2) described in the Japaense Pharmacopoeia was prepared by adding 7.0 ml of hydrochloric acid and water to 2.0 g of sodium chloride so as to give the final volume of 1,000 ml.
Compounds A and B were dissolved in Solution 1 at a concentration of 2 mg/ml and the resulting solutions were stirred at 37°C. Thus, changes with time in the percentages of the remaining compounds A and B were examined by HPLC.

[2] = Toxicity test (mortality rate 24 hours after administration); conditions: mouse, in vivo, ip; 100 mg/kg (i.p.); twenty-four hours after administration; groups of three mice
Method: The test compounds were separately administered to mice (ddy strain, male). The administration of each compound was carried out intraperitoneally (i.p.) in a dose of 100 mg/kg. Twenty-four hours after the administration, the mortality rate of the mice (in groups of three) was examined.

ventricular muscle = experiment: Effect on ventricular muscle refractory period (ERP) under ventricular pacing in anesthetized dog; assay type: in vivo, mongrel adult dog; conditions: ventricular pacing at 400 msec
Method: According to the method described below, the refractory period was measured before and after the intravenous administration of each test compound, and the percent prolongation of refractory period (ERP) was calculated according to the following equation. ERP prolongation (%) =(W - Y)/(Y)x 100 [formula] where W: Refractory period after administration Y: Refractory period before administration
After a mongrel adult dog was anesthetized by the intravenous (i.v.) administration of 30 mg/kg of pentobarbital, the chest was opened on the right side. Then, a set of silver-silver chloride electrodes spaced by 3 mm was sewn on the right ventricle, and […] electrical stimuli (a duration of 4 msec, and a current intensity equal to twice the threshold) were given at an interval of 400 msec. Thereafter, a small amount of alcohol was injected into a sinus artery in order to destroy the pacemaker activity, and the ventricular refractory period (ERP) was measured under ventricular pacing. Specifically, one train comprised a series of stimuli having an interval of 400 msec, and the interval between trains was usually 400 msec. During measurement of the refractory period, this interval was shortened by decrements of 10 msec, and the interval between trains at which the response to the first stimulus of the train disappeared was regarded as the refractory period. These electrical stimuli were given by programmed stimulation using a heart stimulation apparatus (Diamedical Co., Ltd.; DHM-226-3).

Structure (SMILES): CCN(CCCc1cc(=O)n(C)c(=O)n1C)CCc1ccc([N+](=O)[O-])cc1 [Example 84, 6-[3-[N-ethyl-N-[2-(4-nitrophenyl)ethyl]amino]propyl]-1,3-dimethyl-2,4(1H,3H)pyrimidinedione]
activation at 1 µM (right Purkinje fiber): 23%
activation at 10 µM (right Purkinje fiber): 72%
activation at 100 µM (right Purkinje fiber): 96%

Percentage of remaining compound ([1]; 0 hr, 2 mg/ml, stirred at 37°C, HPLC): 100%
remaining at 3 h ([1]; jp solution 1, 3 hr, 2 mg/ml, stirred at 37°C, HPLC, read-out: Percentage of remaining compound): 96%
degraded at 6 h ([1]; jp solution 1, 6 hours, 37°C, read-out: decrease after 6 hours' heating): 7%
remaining at 6 h ([1]; jp solution 1, 6 hr, 2 mg/ml, stirred at 37°C, HPLC, read-out: Percentage of remaining compound): 93%
Structure (SMILES): CCN(CCCc1ccccc1)CCNc1cc(=O)n(C)c(=O)n1C [compound B, 1,3-dimethyl-6-{2-[N-ethyl-3-phenylpropylamino]ethylamino}2,4(1H,3H)-pyrimidinedione]

Structure (SMILES): CC(=O)c1cc(F)ccc1OCCN(C)CCCc1cc(=O)n(C)c(=O)n1C [Example 60, 6-[3-[N-[2-(2-acetyl-4-fluorophenoxy)ethyl]-N-methylamino]propyl]-1,3-dimethyl-2,4(1H,3H)pyrimidinedione]
activation at 1 µM (right Purkinje fiber): 13%
activation at 10 µM (right Purkinje fiber): 34%
activation at 100 µM (right Purkinje fiber): 47%
mortality at 24 h [2]: 0%

Structure (SMILES): CCCN(CCCc1cc(=O)n(C)c(=O)n1C)CCc1ccc([N+](=O)[O-])cc1 [Example 76, 1,3-dimethyl-6-[3-[N-[2-(4-nitrophenyl)ethyl]-N-propylamino]propyl]-2,4(1H,3H)pyrimidinedione]
activation at 1 µM (right Purkinje fiber): 52%
activation at 10 µM (right Purkinje fiber): 114%

Structure (SMILES): CCN(CCCc1cc(=O)n(C)c(=O)n1C)CCOc1ccc([N+](=O)[O-])cc1 [Example 28, 6-[3-[N-ethyl-N-[2-(4-nitrophenoxy)ethyl]amino]propyl]-1,3-dimethyl-2,4(1H,3H)pyrimidinedione]
activation at 1 µM (right Purkinje fiber): 14%
activation at 10 µM (right Purkinje fiber): 35%
activation at 100 µM (right Purkinje fiber): 114%

Structure (SMILES): CC(C)N(CCCc1cc(=O)n(C)c(=O)n1C)CCOc1ccc(NS(C)(=O)=O)cc1 [Example 116, 6-[3-[N-[2-(4-methanesulfonylaminophenoxy)ethyl]-N-isopropylamino]propyl]-1,3-dimethyl-2,4(1H,3H)pyrimidinedione]
activation at 1 µM (right Purkinje fiber): 9%
activation at 10 µM (right Purkinje fiber): 43%
activation at 100 µM (right Purkinje fiber): 77%
ERP (%), percent prolongation of refractory period (ventricular muscle; Dose 0.1 mg/kg i.v.): 6.3%
ERP (%), percent prolongation of refractory period (ventricular muscle; Dose 0.3 mg/kg i.v.): 12.5%
ERP (%), percent prolongation of refractory period (ventricular muscle; Dose 1.0 mg/kg i.v.): 25.0%
mortality at 24 h [2]: 0%

Structure (SMILES): CCCN(CCCc1cc(=O)n(C)c(=O)n1C)CCOc1ccc(C(C)=O)cc1 [Example 47, 6-[3-[N-[2-(4-acetylphenoxy)ethyl]-N-propylamino]propyl]-1,3-dimethyl-2,4(1H,3H)pyrimidinedione]
activation at 1 µM (right Purkinje fiber): 13%
activation at 10 µM (right Purkinje fiber): 53%
activation at 100 µM (right Purkinje fiber): 107%
mortality at 24 h [2]: 0%

Structure (SMILES): CCN(CCCOc1ccc(NS(C)(=O)=O)cc1)CCCc1cc(=O)n(C)c(=O)n1C [Example 122, 6-[3-[N-ethyl-N-[3-(4-methanesulfonylaminophenoxy)propyl]amino]propyl]-1,3-dimethyl-2,4(1H,3H)-pyrimidinedione]
activation at 1 µM (right Purkinje fiber): 10%
activation at 10 µM (right Purkinje fiber): 14%
activation at 100 µM (right Purkinje fiber): 33%

Structure (SMILES): CCN(CCOc1ccc(NS(C)(=O)=O)cc1)CCc1cc(=O)n(C)c(=O)n1C [Example 123, 6-[2-[N-ethyl-N-[2-(4-methanesulfonylaminophenoxy)ethyl]amino]ethyl]-1,3-dimethyl-2,4(1H,3H)-pyrimidinedione]
activation at 1 µM (right Purkinje fiber): 12%
activation at 10 µM (right Purkinje fiber): 41%
activation at 100 µM (right Purkinje fiber): 64%

Structure (SMILES): CCN(CCCc1ccc(NS(C)(=O)=O)cc1)CCCc1cc(=O)n(C)c(=O)n1C [Example 138, 6-[3-[N-ethyl-N-[3-(4-methanesulfonylaminophenyl)propyl]amino]propyl]-1,3-dimethyl-2,4(1H,3H)-pyrimidinedione]
activation at 1 µM (right Purkinje fiber): 6%
activation at 10 µM (right Purkinje fiber): 22%
activation at 100 µM (right Purkinje fiber): 49%

Structure (SMILES): CCN(CCCc1cc(=O)n(C)c(=O)n1C)CCOc1ccc(F)cc1 [Example 39, 6-[3-[N-ethyl-N-[2-(4-fluorophenoxy)ethyl]amino]propyl]-1,3-dimethyl-2,4(1H,3H)pyrimidinedione]
activation at 1 µM (right Purkinje fiber): 14%
activation at 10 µM (right Purkinje fiber): 53%
activation at 100 µM (right Purkinje fiber): 49%

Structure (SMILES): CCN(CCCc1cc(=O)n(C)c(=O)n1C)CCOc1cccc(F)c1 [Example 38, 6-[3-[N-ethyl-N-[2-(3-fluorophenoxy)ethyl]amino]propyl]-1,3-dimethyl-2,4(1H,3H)pyrimidinedione]
activation at 1 µM (right Purkinje fiber): 6%
activation at 10 µM (right Purkinje fiber): 16%
activation at 100 µM (right Purkinje fiber): 22%

Structure (SMILES): CCCN(CCOc1ccc(NS(C)(=O)=O)cc1)CCc1cc(=O)n(C)c(=O)n1C [Example 126, 6-[2-[N-n-propyl-N-[2-(4-methanesulfonylaminophenoxy)ethyl]amino]ethyl]-1,3-dimethyl-2,4(1H,3H)pyrimidinedione]
activation at 1 µM (right Purkinje fiber): 14%
activation at 10 µM (right Purkinje fiber): 46%
activation at 100 µM (right Purkinje fiber): 85%
ERP (%), percent prolongation of refractory period (ventricular muscle; Dose 0.3 mg/kg i.v.): 5.9%
ERP (%), percent prolongation of refractory period (ventricular muscle; Dose 1.0 mg/kg i.v.): 11.8%

Structure (SMILES): CC(C)N(CCCc1cc(=O)n(C)c(=O)n1C)CCOc1ccc(-n2ccnc2)cc1 [Example 53, 6-[3-[N-[2-(4-(1H-imidazol-1-yl)phenoxy)ethyl]-N-isopropylamino]propyl]-1,3-dimethyl-2,4(1H,3H)pyrimidinedione]
activation at 1 µM (right Purkinje fiber): 8%
activation at 10 µM (right Purkinje fiber): 24%
activation at 100 µM (right Purkinje fiber): 49%
mortality at 24 h [2]: 0%

Structure (SMILES): CCCN(CCCc1cc(=O)n(C)c(=O)n1C)CCOc1ccc(NS(C)(=O)=O)cc1 [Example 121, 6-[3-[N-n-propyl-N-[2-(4-methanesulfonylaminophenoxy)ethyl]amino]propyl]-1,3-dimethyl-2,4(1H,3H)pyrimidinedione]
activation at 1 µM (right Purkinje fiber): 17%
activation at 10 µM (right Purkinje fiber): 68%
activation at 100 µM (right Purkinje fiber): 103%
ERP (%), percent prolongation of refractory period (ventricular muscle; Dose 0.1 mg/kg i.v.): 6.2%
ERP (%), percent prolongation of refractory period (ventricular muscle; Dose 0.3 mg/kg i.v.): 20.0%
ERP (%), percent prolongation of refractory period (ventricular muscle; Dose 1.0 mg/kg i.v.): 33.3%
mortality at 24 h [2]: 0%

Structure (SMILES): CCN(CCOc1ccc(F)cc1C(C)=O)CCc1cc(=O)n(C)c(=O)n1C [Example 61, 6-[2-[N-[2-(2-acetyl-4-fluorophenoxy)ethyl]-N-ethylamino]ethyl]-1,3-dimethyl-2,4(1H,3H)pyrimidinedione]
activation at 1 µM (right Purkinje fiber): 3%
activation at 10 µM (right Purkinje fiber): 18%
activation at 100 µM (right Purkinje fiber): 35%
